The text below walks through data of patent US7550426B2, “Acetylated therapeutic procytotoxins” (GHC Research Development Corporation, priority 2005, dated 2009).

Experiment [1] concerns the target prostate specific membrane antigen (human) (UniProt Q04609).
The next experiment deals with nucleated cells. The note with it: high concentrations; cited from earlier work.
The subject of the next experiment is LNCaP tumor. Description: Plasma PSA levels in mouse model for human prostate cancer (LNCaP tumor), intraperitoneal treatment. The note with it: nude mice with LNCaP tumor; 200 μg peptide per injection, intraperitoneally, twice per week; PSA measured after three, five and seven weeks. In kind it is in vivo. As for the experimental part:
LNCaP cells lot #3475262 (Catalog # CRL-1740) are received from ATCC, quickly thawed at 37° C. and placed in culture immediately. Cells are cultured in RPMI media (supplemented with 10% FBS, 50,000 units of Penicillin and 50,000 ug Streptomycin) and grown at 37° C. in the presence of 5% CO2. Cells are passed when approximately 80% confluent until there are enough cells to do the in vivo studies.
(§1) 20 nude mice are injected subcutaneously (right flank) with 0.5 ml of a 4 million cell/ml suspension (50% PBS 50% high concentration matrigel). Each mouse receives approximately 2 million cells. The mice are male, approximately 12 weeks of age and of the nude BalbC background.
(§2) 5 days following LNCaP tumor inoculation, mice are injected with an acetylated γ-glutamate-masked amoebapore, a non-acetylated γ-glutamate-masked amoebapore, and a control. Six control mice are injected with 200 μl of PBS and the remaining 14 mice are injected with 200 μl of a 1 mg/ml solution of either the acetylated or non-acetylated γ-glutamate-masked amoebapore peptide (i.e., 200 μg peptide per injection). Mice are injected intraperitoneally, twice per week. PSA levels are measured after three, five, and seven weeks of treatment. Lower PSA levels relative to control provide an objective indication that the procytotoxin is converted to its cytotoxic form and is able to lyse a target cell.

In another experiment the test system is LNCaP cells. As to the kind of experiment: In vitro lysis of LNCaP cells measured by LDH release. In kind it is cell-based, human. The note with it: concentration 160 μM. How it is done: Prior to tumor injection, in vitro studies are conducted to check the activity of the acetylated and non-acetylated procytotoxin, and to check the activity of the LNCaP cells for their ability to secrete PSA. Peptide activity is checked by a LDH Cytotoxicity Detection Kit (Roche).
Non-acetylated γ-glutamate-masked amoebapore (a modified cytotoxin comprising one or more γ-linked glutamate residues linked via a peptide bond to the epsilon amino group of at least one lysine, preferably the C-terminal-most lysine), and acetylated γ-glutamate-masked amoebapore are compared in vitro for their ability to lyse LNCaP cells, as measured by percent lactic acid dehydrogenase (LDH) release.

Experiment [2] in a line: Mouse weight after 7 weeks of intraperitoneal injection in mouse model for prostate cancer. In kind it is in vivo. The note with it: nude mice with LNCaP tumor; following 7 weeks of intraperitoneal injection; compared to control animals. As for the experimental part: as §1, §2
Additionally, mice are weighed following 7 weeks of intraperitoneal injection of a non-acetylated procytotoxin or an acetylated procytoxin in a mouse model for prostate cancer. […] Cachexia is a profound and marked state of constitutional disorder, representing general ill health. It is sometimes associated with an emaciated condition, such as cancerous cachexia seen in cases of a malignant tumor. […]

For the molecule “acetylated γ-glutamate-masked amoebapore (peptide)”, the % LDH Release (% LDH Release) in experiment [1] came to 29.9.

For “NH2-Gly-Phe-Ile-Ala-Thr-Leu-Cys-Thr-Lys-Val-Leu-Asp-Phe-Gly-Ile-Asp-Lys-Leu-Ile-Gln-Leu-Ile-Glu-Asp-Lys-CONH2 (H-GFIATLCTKVLDFGIDKLIQLIEDK-NH2; listed as Entamoeba histolytica) [Amoebapore Helix 3, parent cytolytic peptide from Entamoeba histolytica amoebapore, third helix]”, in the experiment on nucleated cells, the “concentrations with cytolytic activity for nucleated cells” value was 10 to 100 µM.

As to `CC(=O)NC(CCC(=O)NC(CCC(=O)NCCCCC(N)C(N)=O)C(=O)O)C(=O)O` (stereo not drawn) [Acetylated procytotoxin], the “plasma PSA levels compared to control” value with LNCaP tumor was “lowered PSA levels to a greater extent”. The “% LDH Release” value in the experiment on LNCaP cells was 29.94%. Besides, the weight loss result in experiment [2] is reported as “experienced the least weight loss”.

“non-acetylated γ-glutamate-masked amoebapore (peptide)” registered a % LDH Release (% LDH Release) in experiment [1] of 38.5.
